Consider 13 compounds from PubChem BioAssay AID180 (DTP/NCI, 2004).

“And” between values parts separate entries of the source, which are not always exact repeats. Identical values can stand only once.

This test relates to BDF1 mice, Adenocarcinoma 755 s.c., tumor weight T/C. The test can be described thus: NCI In Vivo Anticancer Drug Screen. Data for tumor model Adenocarcinoma 755 (subcutaneous) in B6D2F1 (BDF1) mice. The conditions noted are these: endpoint: mean tumor weight, higher = larger tumour. A digest of the protocol: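 Readout: T/C, i.e. treated-group measurement over vehicle-control measurement. Endpoint is survival or tumor size in tumor-bearing mice given compound.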

The mark [1] stands for this setting: dose: 50.0 mg/kg/injection, schedule: Q01DX011 (ip), vehicle: carboxymethylcellulose (CMC).
Where [2] appears, read: dose: 100.0 mg/kg/injection, schedule: Q01DX011 (ip), vehicle: carboxymethylcellulose (CMC).

For the compound `N/C(=N\O)c1nsnc1N`, the T/C is 85 % of control under setting [1] and 71 % of control under setting [2].

`c1ccc(CSc2ncnc3nc[nH]c23)nc1`: the T/C was 102 % of control (dose: 0.75 mg/kg/injection, schedule: Q01DX011 (ip), vehicle: carboxymethylcellulose (CMC)); 40 % of control (dose: 1.5 mg/kg/injection, schedule: Q01DX011 (ip), vehicle: carboxymethylcellulose (CMC)); 26 % of control (dose: 3.0 mg/kg/injection, schedule: Q01DX011 (ip), vehicle: carboxymethylcellulose (CMC)); 9 % of control (dose: 6.0 mg/kg/injection, schedule: Q01DX011 (ip), vehicle: carboxymethylcellulose (CMC)); 7 % of control (dose: 12.0 mg/kg/injection, schedule: Q01DX011 (ip), vehicle: carboxymethylcellulose (CMC)); 5 % of control under setting [1]. Also, the T/C under setting [2] is 4 % of control.

For the compound `CC(=O)N(C)C`, the T/C reads like this: (dose: 125.0 mg/kg/injection, schedule: Q#A X022 (ip), vehicle: saline) 84 % of control; (dose: 250.0 mg/kg/injection, schedule: Q01DX011 (ip), vehicle: saline) 93 % of control and 105 % of control; (dose: 250.0 mg/kg/injection, schedule: Q01DX011 (sc), vehicle: saline) 100 % of control; (dose: 250.0 mg/kg/injection, schedule: Q03DX004 (ip), vehicle: saline) 64 % of control; (dose: 500.0 mg/kg/injection, schedule: Q01DX006 (iv), vehicle: saline) 99 % of control; (dose: 500.0 mg/kg/injection, schedule: Q01DX011 (im), vehicle: saline) 155 % of control. The T/C (dose: 500.0 mg/kg/injection, schedule: Q01DX011 (ip), vehicle: saline) is 98 % of control and 77 % of control; the T/C (dose: 500.0 mg/kg/injection, schedule: Q03DX004 (ip), vehicle: saline) was 79 % of control; the T/C (dose: 500.0 mg/kg/injection, schedule: Q#A X022 (ip), vehicle: saline) is 57 % of control; the T/C (dose: 750.0 mg/kg/injection, schedule: Q01DX011 (ip), vehicle: other) was 28 % of control; the T/C (dose: 750.0 mg/kg/injection, schedule: Q03DX004 (ip), vehicle: saline) was 84 % of control; the T/C (dose: 1000.0 mg/kg/injection, schedule: Q01DX001 (ip), vehicle: saline) is 72 % of control and 84 % of control. For the same compound, the T/C was 80 % of control (dose: 1000.0 mg/kg/injection, schedule: Q01DX006 (iv), vehicle: saline); 78 % of control (dose: 1000.0 mg/kg/injection, schedule: Q01DX011 (im), vehicle: saline); 16 % of control (dose: 1000.0 mg/kg/injection, schedule: Q01DX011 (ip), vehicle: other); 66 % of control and 71 % of control (dose: 1000.0 mg/kg/injection, schedule: Q01DX011 (sc), vehicle: saline); 91 % of control (dose: 1000.0 mg/kg/injection, schedule: Q03DX004 (ip), vehicle: saline); 29 % of control (dose: 1000.0 mg/kg/injection, schedule: Q#A X022 (ip), vehicle: saline). Besides, the T/C (dose: 1250.0 mg/kg/injection, schedule: Q01DX011 (ip), vehicle: other) was 5 % of control; the T/C (dose: 1500.0 mg/kg/injection, schedule: Q03DX004 (ip), vehicle: saline) is 81 % of control; the T/C (dose: 2000.0 mg/kg/injection, schedule: Q01DX006 (iv), vehicle: saline) was 67 % of control; the T/C (dose: 2000.0 mg/kg/injection, schedule: Q01DX011 (im), vehicle: saline) is 22 % of control; the T/C (dose: 2000.0 mg/kg/injection, schedule: Q01DX011 (ip), vehicle: saline) was 16 % of control and 17 % of control; the T/C (dose: 2000.0 mg/kg/injection, schedule: Q01DX011 (oral), vehicle: saline) is 48 % of control and 57 % of control. In addition, the T/C was 64 % of control (dose: 2000.0 mg/kg/injection, schedule: Q01DX011 (sc), vehicle: saline); 69 % of control (dose: 2000.0 mg/kg/injection, schedule: Q03DX004 (ip), vehicle: saline); 36 % of control (dose: 3000.0 mg/kg/injection, schedule: Q03DX004 (ip), vehicle: saline); 11 % of control (dose: 4000.0 mg/kg/injection, schedule: Q01DX011 (oral), vehicle: saline).

In the case of `COc1ccc(-c2c(C)c(C(=O)O)nc(-c3ccc(C(=O)O)c(C(=O)O)n3)c2N)c(O)c1OC`, the T/C is, setting by setting: (dose: 100.0 mg/kg/injection, schedule: Q01DX011 (ip), vehicle: water) 58 % of control; (dose: 200.0 mg/kg/injection, schedule: Q01DX011 (ip), vehicle: water) 83 % of control.

Regarding `Nc1nc(Cl)nc2c1ncn2C1OC(CO)C(O)C1O` (stereo not given), the T/C (dose: 0.05 mg/kg/injection, schedule: Q01DX011 (ip), vehicle: methylcellulose (MC)) is 59 % of control; the T/C (dose: 0.1 mg/kg/injection, schedule: Q01DX011 (ip), vehicle: methylcellulose (MC)) was 84 % of control; the T/C (dose: 0.2 mg/kg/injection, schedule: Q01DX011 (ip), vehicle: methylcellulose (MC)) was 48 % of control.

With `Cn1c(Cl)nc2nc(Cl)nc(Cl)c21`, the T/C (dose: 7.5 mg/kg/injection, schedule: Q01DX011 (ip), vehicle: carboxymethylcellulose (CMC)) was 110 % of control.

With `CCN(CC)c1ccc2cc3ccc(=[N+](CC)CC)cc-3oc2c1`, the T/C is, setting by setting: (dose: 0.64 mg/kg/injection, schedule: Q01DX011 (ip), vehicle: carboxymethylcellulose (CMC)) 33 % of control; (dose: 0.66 mg/kg/injection, schedule: Q01DX011 (ip), vehicle: carboxymethylcellulose (CMC)) 47 % of control; (dose: 1.27 mg/kg/injection, schedule: Q01DX011 (ip), vehicle: carboxymethylcellulose (CMC)) 119 % of control; (dose: 1.32 mg/kg/injection, schedule: Q01DX011 (ip), vehicle: carboxymethylcellulose (CMC)) 90 % of control; (dose: 1.7 mg/kg/injection, schedule: Q01DX011 (ip), vehicle: carboxymethylcellulose (CMC)) 91 % of control; (dose: 2.64 mg/kg/injection, schedule: Q01DX011 (ip), vehicle: carboxymethylcellulose (CMC)) 81 % of control. Besides, the T/C is 115 % of control (dose: 4.0 mg/kg/injection, schedule: Q01DX011 (ip), vehicle: other); 70 % of control (dose: 5.0 mg/kg/injection, schedule: Q01DX011 (ip), vehicle: methylcellulose (MC)); 53 % of control (dose: 5.1 mg/kg/injection, schedule: Q01DX011 (ip), vehicle: carboxymethylcellulose (CMC)); 100 % of control (dose: 5.28 mg/kg/injection, schedule: Q01DX011 (ip), vehicle: carboxymethylcellulose (CMC)); 114 % of control (dose: 8.0 mg/kg/injection, schedule: Q01DX011 (ip), vehicle: other); 90 % of control (dose: 12.0 mg/kg/injection, schedule: Q01DX011 (ip), vehicle: other). Moreover, the T/C (dose: 15.0 mg/kg/injection, schedule: Q01DX011 (ip), vehicle: methylcellulose (MC)) was 75 % of control.

`CCCn1cnc2c(SCc3ccccc3F)nc(N)nc21`: the T/C runs as follows: (dose: 3.1 mg/kg/injection, schedule: Q01DX011 (ip), vehicle: methylcellulose (MC)) 22 % of control; (dose: 6.25 mg/kg/injection, schedule: Q01DX011 (ip), vehicle: methylcellulose (MC)) 11 % of control; (dose: 12.5 mg/kg/injection, schedule: Q01DX011 (ip), vehicle: methylcellulose (MC)) 1 % of control and 5 % of control.

As for `CNc1ncnc2c1cnn2C1CCCO1` (stereo not given), the T/C reads like this: (dose: 2.3 mg/kg/injection, schedule: Q01DX011 (ip), vehicle: methylcellulose (MC)) 71 % of control; (dose: 4.6 mg/kg/injection, schedule: Q01DX011 (ip), vehicle: methylcellulose (MC)) 33 % of control; (dose: 9.3 mg/kg/injection, schedule: Q01DX011 (ip), vehicle: methylcellulose (MC)) 14 % of control.

On to `O=C(C1C(c2ccccc2)N1Cc1ccccc1)C1C(c2ccccc2)N1Cc1ccccc1` (stereo not given), for which the T/C was 47 % of control (dose: 25.0 mg/kg/injection, schedule: Q01DX011 (ip), vehicle: methylcellulose (MC)); 77 % of control (dose: 50.0 mg/kg/injection, schedule: Q01DX011 (ip), vehicle: methylcellulose (MC)); 66 % of control (dose: 100.0 mg/kg/injection, schedule: Q01DX011 (ip), vehicle: methylcellulose (MC)).

In the case of `Cn1cnc(=S)c2[nH]cnc21`, the T/C (dose: 300.0 mg/kg/injection, schedule: Q01DX011 (ip), vehicle: carboxymethylcellulose (CMC)) was 61 % of control.

Regarding `CCCCCCCCn1cnc2c(=S)nc[nH]c21`, the T/C reads like this: (dose: 125.0 mg/kg/injection, schedule: Q01DX011 (ip), vehicle: carboxymethylcellulose (CMC)) 84 % of control; (dose: 250.0 mg/kg/injection, schedule: Q01DX011 (ip), vehicle: carboxymethylcellulose (CMC)) 67 % of control; (dose: 500.0 mg/kg/injection, schedule: Q01DX011 (ip), vehicle: carboxymethylcellulose (CMC)) 102 % of control.

Regarding `c1ccc(N2CCSCC2)cc1`, the T/C (dose: 40.5 mg/kg/injection, schedule: Q01DX011 (ip), vehicle: methylcellulose (MC)) is 16 % of control and 28 % of control.

What is called T/C is the result in the treated group divided by that in the control group, in per cent.
